Consider three molecules from ChEMBL document CHEMBL4043245, “Synthesis, characterization, and cellular localization of a fluorescent probe of the antimalarial 8-aminoquinoline primaquine” (Bioorg Med Chem Lett, 2017).

What is called IC50 is the point on the concentration scale where inhibition reaches its midpoint.

The test system of series [1] is Erythrocyte. Description: Drug uptake in human erythrocytes after 30 to 45 mins by mitotracker red dye based flow cytometric method. The format is ADME, cell-based.
A short description of series [2]: Drug uptake in cytoplasm of Plasmodium falciparum D10-ACPLEADER-GFP gametocyte stage 5 infected in human erythrocytes at 150 uM after 30 to 45 mins by mitotracker Red dye based fluorescence microscopic analysis. The class given is ADME, cell-based.
Series [3] concerns Plasmodium falciparum. Kind of series: Antimalarial activity against asexual blood stage of chloroquine-susceptible Plasmodium falciparum 3D7 infected in human erythrocytes by [3H]-Hypoxanthine uptake assay. The format is functional, cell-based.
Series [4] can be described thus: Drug uptake in relict plastid of asexual blood stage of Plasmodium falciparum D10-ACPLEADER-GFP ring forms infected in human erythrocytes at 150 uM after 30 to 45 mins by mitotracker Red dye based fluorescence microscopic analysis. The format is ADME, cell-based.
The nature of series [5]: Drug uptake in cytoplasm of asexual blood stage of Plasmodium falciparum D10-ACPLEADER-GFP trophozoite forms infected in human erythrocytes at 150 uM after 30 to 45 mins in presence of primaquine by mitotracker Red dye based fluorescence microscopic analysis. The class given is ADME, cell-based.
Series [6] can be described thus: Drug uptake in cytoplasm of asexual blood stage of Plasmodium falciparum D10-ACPLEADER-GFP schizont forms infected in human erythrocytes at 150 uM after 30 to 45 mins by mitotracker Red dye based fluorescence microscopic analysis. The class given is ADME, cell-based.
A short description of series [7]: Drug uptake in nucleus of asexual blood stage of Plasmodium falciparum D10-ACPLEADER-GFP schizont forms infected in human erythrocytes at 150 uM after 30 to 45 mins by mitotracker Red dye based fluorescence microscopic analysis. The format is ADME, cell-based.
Series [8] is described as follows: Drug uptake in food vacuole of asexual blood stage of Plasmodium falciparum D10-ACPLEADER-GFP ring forms infected in human erythrocytes at 150 uM after 30 to 45 mins by mitotracker Red dye based fluorescence microscopic analysis. The class given is ADME, cell-based.
Series [9] is described as follows: Drug uptake in mitochondria of Plasmodium falciparum D10-ACPLEADER-GFP gametocyte stage 5 infected in human erythrocytes at 150 uM after 30 to 45 mins by mitotracker Red dye based fluorescence microscopic analysis. The format is ADME, cell-based.
The nature of series [10]: Drug uptake in cytoplasm of Plasmodium falciparum D10-ACPLEADER-GFP gametocyte stage 4 infected in human erythrocytes at 150 uM after 30 to 45 mins by mitotracker Red dye based fluorescence microscopic analysis. The class given is ADME, cell-based.
The subject of series [11] is HepG2. Kind of series: Cytotoxicity against human HepG2 cells after 24 hrs by MTS assay. The settings on record: HepG2, 24 h. The format is cell-based. (In general: Tetrazolium dyes change colour on reduction, which living cells bring about.)
Series [12] concerns Plasmodium falciparum. Description: Antimalarial activity against asexual blood stage of chloroquine-susceptible Plasmodium falciparum D6 infected in human erythrocytes by [3H]-Hypoxanthine uptake assay. The format is functional, cell-based.
Series [13] is described as follows: Drug uptake in food vacuole of Plasmodium falciparum D10-ACPLEADER-GFP gametocyte stage 4 infected in human erythrocytes at 150 uM after 30 to 45 mins by mitotracker Red dye based fluorescence microscopic analysis. The class given is ADME, cell-based.
A short description of series [14]: Drug uptake in apicoplast of asexual blood stage of Plasmodium falciparum D10-ACPLEADER-GFP schizont forms infected in human erythrocytes at 150 uM after 30 to 45 mins by mitotracker Red dye based fluorescence microscopic analysis. The class given is ADME, cell-based.
A short description of series [15]: Drug uptake in cytoplasm of asexual blood stage of Plasmodium falciparum D10-ACPLEADER-GFP ring forms infected in human erythrocytes at 150 uM after 30 to 45 mins by mitotracker Red dye based fluorescence microscopic analysis. The format is ADME, cell-based.
Series [16] can be described thus: Drug uptake in human HepG2 cells infected with liver stage chloroquine-susceptible Plasmodium berghei 1052 C11 by mitotracker red dye based fluorescence microscopic analysis. The class given is ADME, cell-based.
Series [17] is described as follows: Drug uptake in mitochondria of asexual blood stage of Plasmodium falciparum D10-ACPLEADER-GFP ring forms infected in human erythrocytes at 150 uM after 30 to 45 mins by mitotracker Red dye based fluorescence microscopic analysis. The format is ADME, cell-based.
Series [18] deals with Plasmodium falciparum. Kind of series: Antimalarial activity against asexual blood stage of chloroquine-resistant Plasmodium falciparum W2 infected in human erythrocytes by [3H]-Hypoxanthine uptake assay. The class given is functional, cell-based.
A short description of series [19]: Drug uptake in food vacuole of asexual blood stage of Plasmodium falciparum D10-ACPLEADER-GFP trophozoite forms infected in human erythrocytes at 150 uM after 30 to 45 mins by mitotracker Red dye based fluorescence microscopic analysis. The class given is ADME, cell-based.
The nature of series [20]: Drug uptake in relict plastid of asexual blood stage of Plasmodium falciparum D10-ACPLEADER-GFP schizont forms infected in human erythrocytes at 150 uM after 30 to 45 mins by mitotracker Red dye based fluorescence microscopic analysis. The format is ADME, cell-based.
The nature of series [21]: Drug uptake in mitochondria of asexual blood stage of Plasmodium falciparum D10-ACPLEADER-GFP trophozoite forms infected in human erythrocytes at 150 uM after 30 to 45 mins by mitotracker Red dye based fluorescence microscopic analysis. The class given is ADME, cell-based.
Series [22] concerns Plasmodium berghei. Description: Antiplasmodial activity against liver stage chloroquine-susceptible Plasmodium berghei 1052 C11 infected in HepG2 cells after 44 hrs by TopCount microplate luminescence assay. The format is functional, cell-based. The settings on record: 1052 C11, HepG2, 44 h.
Series [23] can be described thus: Drug uptake in cytoplasm of asexual blood stage of Plasmodium falciparum D10-ACPLEADER-GFP trophozoite forms infected in human erythrocytes at 150 uM after 30 to 45 mins by mitotracker Red dye based fluorescence microscopic analysis. The class given is ADME, cell-based.
Series [24] in a line: Drug uptake in apicoplast of asexual blood stage of Plasmodium falciparum D10-ACPLEADER-GFP ring forms infected in human erythrocytes at 150 uM after 30 to 45 mins by mitotracker Red dye based fluorescence microscopic analysis. The class given is ADME, cell-based.
Series [25] in a line: Drug uptake in relict plastid of asexual blood stage of Plasmodium falciparum D10-ACPLEADER-GFP trophozoite forms infected in human erythrocytes at 150 uM after 30 to 45 mins by mitotracker Red dye based fluorescence microscopic analysis. The format is ADME, cell-based.
Series [26] can be described thus: Drug uptake in mitochondria of asexual blood stage of Plasmodium falciparum D10-ACPLEADER-GFP schizont forms infected in human erythrocytes at 150 uM after 30 to 45 mins by mitotracker Red dye based fluorescence microscopic analysis. The format is ADME, cell-based.
The nature of series [27]: Drug uptake in food vacuole of Plasmodium falciparum D10-ACPLEADER-GFP gametocyte stage 5 infected in human erythrocytes at 150 uM after 30 to 45 mins by mitotracker Red dye based fluorescence microscopic analysis. The format is ADME, cell-based.
A short description of series [28]: Drug uptake in mitochondria of Plasmodium falciparum D10-ACPLEADER-GFP gametocyte stage 4 infected in human erythrocytes at 150 uM after 30 to 45 mins by mitotracker Red dye based fluorescence microscopic analysis. The class given is ADME, cell-based.
Series [29] can be described thus: Drug uptake in food vacuole of asexual blood stage of Plasmodium falciparum D10-ACPLEADER-GFP schizont forms infected in human erythrocytes at 150 uM after 30 to 45 mins by mitotracker Red dye based fluorescence microscopic analysis. The class given is ADME, cell-based.
Series [30] in a line: Drug uptake in nucleus of asexual blood stage of Plasmodium falciparum D10-ACPLEADER-GFP trophozoite forms infected in human erythrocytes at 150 uM after 30 to 45 mins by mitotracker Red dye based fluorescence microscopic analysis. The format is ADME, cell-based.
Series [31] in a line: Drug uptake in apicoplast of asexual blood stage of Plasmodium falciparum D10-ACPLEADER-GFP trophozoite forms infected in human erythrocytes at 150 uM after 30 to 45 mins by mitotracker Red dye based fluorescence microscopic analysis. The class given is ADME, cell-based.
The nature of series [32]: Drug uptake in nucleus of asexual blood stage of Plasmodium falciparum D10-ACPLEADER-GFP ring forms infected in human erythrocytes at 150 uM after 30 to 45 mins by mitotracker Red dye based fluorescence microscopic analysis. The format is ADME, cell-based.

As to `O=c1ccc2ccccc2o1` [COUMARIN], in series [1], the Drug uptake result is listed as “Not Active”.
As to `COc1cc(NC(C)CCCNC(=O)CCCc2cc(=O)oc3cc(O)ccc23)c2ncccc2c1` (stereo not drawn), the Drug uptake entry in series [2] is on record as “Active”; in series [4], “Not Active”; in series [5] it was “Not Active”; in [6], “Active”; in series [7] it was “Not Active”; in series [8] it was “Not Active”. Also, the Drug uptake result in series [9] is reported as “Not Active”; in series [10], “Active”; in series [13], “Not Active”; in series [14], “Not Active”; in series [15] it was “Active”; in series [16], “Not Active”. Also, the Drug uptake result is recorded as “Not Active” in series [17]; “Not Active” in series [19]; “Not Active” in [20]; “Not Active” in series [21]; “Active” in series [23]; “Not Active” in series [24]. Also, the Drug uptake result in [25], in [26], in series [27], in series [28], in series [29] and in series [1] was “Not Active” throughout. Moreover, the Drug uptake entry in series [30], in series [31] and in series [32] was “Not Active” in each case. The IC50 amounted to 10.5 µM in series [3]; 44.5 µM in series [11]; 4.47 µM in [12]; 3520 nM in [18]; 20.7 µM in series [22].
As to `COc1cc(NC(C)CCCN)c2ncccc2c1` (stereo not drawn) [PRIMAQUINE], the IC50 stood at 5.77 µM in series [3]; 101 µM in [11]; 5.16 µM in series [12]; 2350 nM in [18]; 17.2 µM in series [22].
